Measured values from US11649218B2, “C-Abl tyrosine kinase inhibitory compound embodiments and methods of making and using the same” (The USA, as represented by the Secretary, Dept. of Health …, priority 2018, dated 2023).

The compounds below were run on Leukemia K562 cell (assay: Leukemia K562 cell proliferation/viability assay (CellTiterGlo, 48 hours)). Details: K562 cells.
Format: cell-based
Set-up: unit not given here
Experimental: C-Abl is encoded by the ABL1 gene (NCBI Gene ID NO. 25). […] Assays for determining if a small molecule inhibits c-Abl activity are known. Non-limiting examples include cell proliferation assays using cancer cells that are BCR-Abl positive and depend on BCR-Abl for growth, such as the leukemia cell line K562. […] In some embodiments described herein, compounds are tested for ability to reduce K562 cell proliferation in an HTS adapted assay which measures cell viability using the reagent CellTiterGlo after 48 hours treatment.
For `CS(=O)(=O)Nc1ccc(-c2ccc3c(c2)C(=O)Nc2cc(OC(F)(F)F)ccc2O3)cc1` [NCGC00356666, N-(4-(11-Oxo-8-(trifluoromethoxy)-10,11-dihydrodibenzo[b,f][1,4]oxazepin-2-yl)phenyl)methanesulfonamide], the Efficacy was −79.9.
Work on `CN1C(=O)c2ccc(-c3cccc(NS(C)(=O)=O)c3)cc2Oc2ccc(OC(F)(F)F)cc21` [NCGC00384234] yielded an Efficacy of −54.1.
With `NCc1ccc(-c2ccc3c(c2)C(=O)Nc2cc(OC(F)(F)F)ccc2O3)s1` [NCGC00388547, 2-(5-(Aminomethyl)thiophen-2-yl)-8-(trifluoromethoxy)dibenzo[b,f][1,4]oxazepin-11(10H)-one] the Efficacy was −91.7.
`CC(=O)c1csc(-c2ccc3c(c2)C(=O)Nc2cc(OC(F)(F)F)ccc2O3)c1` [NCGC00388580, 2-(4-Acetylthiophen-2-yl)-8-(trifluoromethoxy)dibenzo[b,f][1,4]oxazepin-11(10H)-one] gave an Efficacy of −92.6.
`O=C(O)c1ccc2c(c1)C(=O)Nc1cc(OC(F)(F)F)ccc1O2` [NCGC00387752] was tested, and the Efficacy was 0.0.
`CC(C)(CO)n1cc(-c2ccc3c(c2)C(=O)Nc2cc(OC(F)(F)F)ccc2O3)cn1` [NCGC00387295, 2-(1-(Hydroxy-2-methylpropan-2-yl)-1H-pyrazol-4-yl)-8-(trifluoromethoxy)dibenzo[b,f][1,4]oxazepin-11(10H)-one] showed an Efficacy of −87.7.
In the case of `N#Cc1ccc2c(c1)NC(=O)c1cc(-c3ccnc(N4CCOCC4)c3)ccc1O2` [NCGC00481503, 2-(2-Morpholinopyridin-4-yl)-11-oxo-10,11-dihydrodibenzo[b,f][1,4]oxazepine-8-carbonitrile], the Efficacy is reported as −80.5.
Compound `CN1CCN(C(=O)c2cccc(-c3ccc4c(c3)C(=O)Nc3cc(OC(F)(F)F)ccc3O4)c2)CC1` [NCGC00356690, 2-(3-(4-Methylpiperazine-1-carbonyl)phenyl)-8-(trifluoromethoxy)dibenzo[b,f][1,4]oxazepin-11(10H)-one] has an Efficacy of −121.9.
With `O=C1Nc2cc(C(F)(F)F)ccc2Oc2ccc(-c3ccnc(N4CCOCC4)c3)cc21` [NCGC00481506, 2-(2-Morpholinopyridin-4-yl)-8-(trifluoromethyl)dibenzo[b,f][1,4]oxazepin-11(10H)-one] the Efficacy was −87.5.
`NC(=O)Cn1cc(-c2ccc3c(c2)C(=O)Nc2cc(OC(F)(F)F)ccc2O3)cn1` [NCGC00387404, 2-(4-(11-Oxo-8-(trifluoromethoxy)-10,11-dihydrodibenzo[b,f][1,4]oxazepin-2-yl)-11-pyrazol-1-yl)acetamide] gave an Efficacy of −8.8.
`CS(=O)(=O)Nc1cccc(-c2ccc3c(c2)C(=O)Nc2cc(OC(F)(F)F)ccc2O3)c1` [NCGC00356665, N-(3-(11-Oxo-8-(trifluoromethoxy)-10,11-dihydrodibenzo[b,f][1,4]oxazepin-2-yl)phenyl)methanesulfonamide] gave an Efficacy of −83.8.
`O=C1Nc2cc(OC(F)(F)F)ccc2Nc2ccc(-c3cccc(C(=O)N4CCNCC4)c3)cc21` [NCGC00355569, 2-(3-(Piperazine-1-carbonyl)phenyl)-8-(trifluoromethoxy)-5,10-dihydro-11H-dibenzo[b,e][1,4]diazepin-11-one] gave an Efficacy of −97.3.
With `O=C1Nc2cc(OC(F)(F)F)ccc2Oc2ccc(CCCB(O)O)cc21` [NCGC00390142, (3-(11-Oxo-8-(trifluoromethoxy)-10,11-dihydrodibenzo[b,f][1,4]oxazepin-2-yl)propyl)boronic acid] the Efficacy was −103.4.
Compound `Nc1cc(-c2ccc3c(c2)C(=O)Nc2cc(OC(F)(F)F)ccc2O3)ccn1` [NCGC00373061, 2-(2-Aminopyridin-4-yl)-8-(trifluoromethoxy)dibenzo[b,f][1,4]oxazepin-11(10H)-one] has an Efficacy of −87.0.
For `O=C1Nc2cc(OC(F)(F)F)ccc2Oc2ccc(-c3ccncc3)cc21` [NCGC00371309, 2-(Pyridin-4-yl)-8-(trifluoromethoxyl)dibenzo[b,f][1,4]oxazepin-11(10H)-one], the Efficacy was −77.6.
For `O=C1Nc2cc(OC(F)(F)F)ccc2Oc2ccc(-c3ccnc4[nH]ccc34)cc21` [NCGC00373059, 2-(1H-Pyrrolo[2,3-b]pyridin-4-yl)-8-(trifluoromethoxy)dibenzo[b,f][1.4]oxazepin-11(10H)-one], the Efficacy was −52.9.
`O=C(NCCN1CCOCC1)c1cccc(-c2ccc3c(c2)C(=O)Nc2cc(OC(F)(F)F)ccc2N3)c1` [NCGC00355557, N-(2-Morpholinoethyl)-3-(11-oxo-8-(trifluoromethoxy)-10,11-dihydro-5H-dibenzo[b,e][1,4]diazepin-2-yl)benzamide] was tested, and the Efficacy was −91.1.
Work on `CN1C(=O)c2ccc(-c3cccc(N(C)S(C)(=O)=O)c3)cc2Oc2ccc(OC(F)(F)F)cc21` [NCGC00384267] yielded an Efficacy of −48.4.
Compound `O=C1Nc2cc(OC(F)(F)F)ccc2Oc2ccc(-c3cncnc3)cc21` [NCGC00371310, 2-(Pyrimidin-5-yl)-8-(trifluoromethoxy)dibenzo[b,f][1,4]oxazepin-11(10H)-one] has an Efficacy of −15.0.
For `O=C1Nc2cc(OC(F)(F)F)ccc2Oc2ccc(-c3cccc(-c4nn[nH]n4)c3)cc21` [NCGC00420743, 2-(3-(2H-Tetrazol-5-yl)phenyl)-8-(trifluoromethoxy)dibenzo[b,f][1,4]oxazepin-11(10H)-one], the Efficacy was 0.0.
`O=C1Nc2cc(OC(F)(F)F)ccc2Oc2ccc(-c3cccc(B(O)O)c3)cc21` [NCGC00415019, (3-(11-Oxo-8-(trifluoromethoxy)-10,11-dihydrodibenzo[b,j][1,4]oxazepin-2-v)phenyl)boronic acid] showed an Efficacy of −79.0.
For `O=C1Nc2cc(OC(F)(F)F)ccc2Oc2ccc(-c3cnn(CCO)c3)cc21` [NCGC00387403, 2-(1-(2-Hydroxyethyl)-1H-pyrazol-4-yl)-8-(trifluoromethoxy)dibenzo[b,f][1,4]oxazepin-11(10H)-one], the Efficacy was −37.6.
Work on `CS(=O)(=O)Nc1cccc(-c2ccc3c(c2)Oc2ccc(OC(F)(F)F)cc2NC3=O)c1` [NCGC00384235, N-(3-(11-Oxo-8-(trifluoromethoxy)-10,11-dihydrodibenzo[b,f][1,4]oxazepin-3-yl)phenyl)methanesulfonamide] yielded an Efficacy of −99.8.
`O=C1Nc2cc(OC(F)(F)F)ccc2Oc2ccc(-c3ccc(CN4CCOCC4)s3)cc21` [NCGC00388536, 2-(5-(Morpholinomethyl)thiophen-2-yl)-8-(trifluoromethoxy)dibenzo[b,f][1,4]oxazepin-11(10H)-one] showed an Efficacy of −83.1.
Compound `O=C1Nc2cc(OC(F)(F)F)ccc2S(=O)(=O)c2ccc(-c3ccnc(N4CCOCC4)c3)cc21` [NCGC00483140, 2-(2-Morpholinopyridin-4-yl)-8-(trifluoromethoxy)dibenzo[b,f][1,4]thiazepin-11(10H)-one 5,5-dioxide] has an Efficacy of −87.2.
`N#CCCn1cc(-c2ccc3c(c2)C(=O)Nc2cc(OC(F)(F)F)ccc2O3)cn1` [NCGC00387293, 3-(4-(11-Oxo-8-(trifluoromethoxy)-10,11-dihydrodibenzo[b,f][1,4]oxazepin-2-yl)-1H-pyrazol-1-yl)propanenitrile] was tested, and the Efficacy was −84.4.
Compound `CS(=O)(=O)Nc1cccc(-c2ccc3c(c2)Oc2ccc(OC(F)(F)F)cc2C(=O)N3)c1` [NCGC00384295, N-(3-(11-Oxo-2-(trifluoromethoxy)-10,11-dihydrodibenzo[b,f][1,4]oxazepin-7-yl)phenyl)methanesulfonamide] has an Efficacy of −80.6.
`O=C1Nc2cc(OC(F)(F)F)ccc2Oc2ccc(-c3cccc(-c4ccn[nH]4)c3)cc21` [NCGC00411874, 2-(3-(1H-Pyrazol-5-yl)phenyl)-8-(trifluoromethoxy)dibenzo[b,f][1,4]oxazepin-11(10H)-one] showed an Efficacy of −84.3.
Work on `CS(=O)(=O)Nc1cccc(-c2ccc3c(c2)Oc2cc(OC(F)(F)F)ccc2NC3=O)c1` [NCGC00384296, N-(3-(11-oxo-7-(trifluoromethoxy)-10,11-dihydrodibenzo[b,f][1,4]oxazepin-3-yl)phenyl)methanesulfonamide] yielded an Efficacy of −73.3.
Work on `COc1ccc(-c2ccc3c(c2)C(=O)Nc2cc(OC(F)(F)F)ccc2O3)cc1O` [NCGC00373062, 2-(3-Hydroxy-4-methoxyphenyl)-8-(trifluoromethoxy)dibenzo[b,f][1,4]oxazepin-11(10H)-one] yielded an Efficacy of −93.7.
With `O=C1Nc2cc(OC(F)(F)F)ccc2[S+]([O-])c2ccc(-c3ccnc(N4CCOCC4)c3)cc21` (stereo not shown) [NCGC00482446, 2-(2-Morpholinopyridin-4-yl)-8-(trifluoromethoxy)dibenzo[b,f][1,4]thiazepin-11(10H)-one 5-oxide] the Efficacy was −83.3.
Compound `CS(=O)(=O)Nc1cccc(-c2ccc3c(c2)C(N)=Nc2cc(OC(F)(F)F)ccc2O3)c1` [NCGC00373124, N-(3-(11-Amino-8-(trifluoromethoxy)dibenzo[b,f][1,4]oxazepin-2-yl)phenyl)methanesulfonamide] has an Efficacy of −87.5.
Compound `O=C1Nc2cc(OC(F)(F)F)ccc2Oc2ccc(-c3ccc(CN4CCNCC4)s3)cc21` [NCGC00388560, 2-(5-(Piperazin-1-ylmethyl)thiophen-2-yl)-8-(trifluoromethoxy)dibenzo[b,f][1,4]oxazepin-11(10H)-one] has an Efficacy of −95.0.
Work on `O=C(NCCO)c1cccc(-c2ccc3c(c2)C(=O)Nc2cc(OC(F)(F)F)ccc2N3)c1` [NCGC00355556, N-(2-hydroxyethyl)-3-(11-oxo-8-(trifluoromethoxy)-10,11-dihydro-5H-dibenzo[b,e][1,4]diazepin-2-yl)benzamide] yielded an Efficacy of −90.9.
`CN1C(=O)c2cc(-c3cccc(NS(C)(=O)=O)c3)ccc2Oc2ccc(OC(F)(F)F)cc21` [NCGC00384233] showed an Efficacy of −75.1.
Work on `O=C1Nc2cc(OC(F)(F)F)ccc2Oc2ccc(B(O)O)cc21` [NCGC00387437, (11-Oxo-8-(trifluoromethoxy)-10,11-dihydrodibenzo[b,f][1,4]oxazepin-2-yl)boronic acid] yielded an Efficacy of −82.6.
`O=C(NCCO)c1cccc(-c2ccc3c(c2)C(=O)Nc2cc(OC(F)(F)F)ccc2O3)c1` [NCGC00356688, N-(2-Hydroxyethyl)-3-(11-oxo-8-(trifluoromethoxy)-10H-dihydrodibenzo[b,f][1,4]oxazepin-2-yl)benzamide] was tested, and the Efficacy was −89.8.
